Data published in the supplement of paper PMC10307832.

Compound: COc1cc(Nc2ncc3c(n2)-c2ccc(Cl)cc2C(c2c(F)cccc2OC)=NC3)ccc1C(=O)O [Alisertib] + CS(=O)(=O)N1CCN(Cc2cc3nc(-c4cccc5[nH]ncc45)nc(N4CCOCC4)c3s2)CC1 [Pictilisib] (partner 1 µM)
Assay: relative viability (nuclei count vs DMSO), 5 days (fraction); higher = more cells survive
Method in brief: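 Cells from lung cancer lines were seeded into 1536-well plates and, one day later, dosed by pin tool. Treatments were either a single drug or a fixed dose of an anchor drug with five library-drug doses (not always all listed) in √10 steps. After 5 days, nuclei were stained in a one-step fixation (final 0.05% Triton X-100, 1% formaldehyde, 1 ug/ml Hoechst) and counted on 4× images, and relative viability is the treated-to-vehicle nuclei ratio, as the median of duplicate plates.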

Cell Line | relative viability (first compound 0.005 µM) | relative viability (first compound 0.01581 µM) | relative viability (first compound 0.05 µM) | relative viability (first compound 0.1581 µM) | relative viability (first compound 0.5 µM)
201T | 0.623 | 0.676 | 0.671 | 0.326 | 0.327
A549 | 0.423 | 0.123 | 0.051 | 0.0422 | 0.0618
A-427 | 0.615 | 0.451 | 0.234 | 0.147 | 0.172
ABC-1 | 0.674 | 0.606 | 0.578 | 0.277 | 0.232
BEN | 0.554 | 0.508 | 0.276 | 0.24 | 0.224
CAL-12T | 0.322 | 0.294 | 0.134 | 0.246 | 0.218
COR-L23 | 0.662 | 0.632 | 0.248 | 0.137 | 0.0917
COR-L 105 | 0.44 | 0.34 | 0.336 | 0.264 | 0.281
Calu-6 | 0.726 | 0.379 | 0.164 | 0.171 | 0.153
ChaGo-K-1 | 0.632 | 0.457 | 0.267 | 0.283 | 0.184
EBC-1 | 0.394 | 0.282 | 0.112 | 0.158 | 0.121
EKVX | 0.405 | 0.418 | 0.266 | 0.157 | 0.15
EMC-BAC-2 | 0.516 | 0.414 | 0.291 | 0.271 | 0.233
EPLC-272H | 0.281 | 0.244 | 0.227 | 0.14 | 0.124
H3255 | 0.472 | 0.447 | 0.286 | 0.165 | 0.152
HARA | 0.283 | 0.426 | 0.511 | 0.112 | 0.0803
HCC-15 | 0.586 | 0.64 | 0.233 | 0.117 | 0.123
HCC-44 | 0.623 | 0.598 | 0.572 | 0.153 | 0.159
HCC-78 | 0.172 | 0.253 | 0.168 | 0.145 | 0.0967
HCC-366 | 0.0828 | 0.135 | 0.0183 | 0.0243 | 0.0203
HCC-827 | 0.869 | 0.978 | 0.515 | 0.381 | 0.361
HOP-62 | 0.579 | 0.757 | 0.373 | 0.149 | 0.103
IA-LM | 0.332 | 0.25 | 0.201 | 0.142 | 0.0927
LC-2-ad | 0.116 | 0.251 | 0.107 | 0.108 | 0.105
LCLC-97TM1 | 0.223 | 0.167 | 0.135 | 0.108 | 0.0964
LCLC-103H | 0.588 | 0.687 | 0.573 | 0.211 | 0.206

Cell Line | relative viability (first compound 0.005 µM) | relative viability (first compound 0.01581 µM) | relative viability (first compound 0.05 µM) | relative viability (first compound 0.1581 µM) | relative viability (first compound 0.5 µM)
LK-2 | 0.573 | 0.566 | 0.314 | 0.329 | 0.26
LOU-NH91 | 0.508 | 0.487 | 0.448 | 0.366 | 0.392
LU99A | 0.404 | 0.341 | 0.252 | 0.159 | 0.151
LXF-289 | 0.701 | 0.565 | 0.576 | 0.103 | 0.0904
NCI-H23 | 0.422 | 0.302 | 0.18 | 0.185 | 0.147
NCI-H322M | 0.497 | 0.477 | 0.451 | 0.321 | 0.311
NCI-H358 | 0.269 | 0.327 | 0.217 | 0.154 | 0.14
NCI-H441 | 0.402 | 0.229 | 0.118 | 0.139 | 0.123
NCI-H460 | 0.364 | 0.428 | 0.327 | 0.0613 | 0.0689
NCI-H520 | 0.23 | 0.203 | 0.209 | 0.179 | 0.187
NCI-H596 |  | 0.412 | 0.433 | 0.214 | 0.242
NCI-H647 | 0.42 | 0.449 | 0.274 | 0.137 | 0.0788
NCI-H650 | 0.732 | 0.825 | 0.29 | 0.267 | 0.174
NCI-H661 | 0.378 | 0.379 | 0.229 | 0.245 | 0.242
NCI-H727 | 0.273 | 0.333 | 0.236 | 0.236 | 0.225
NCI-H838 | 0.377 | 0.379 | 0.274 | 0.189 | 0.113
NCI-H1299 | 0.753 | 0.698 | 0.187 | 0.179 | 0.0871
NCI-H1355 | 0.37 | 0.374 | 0.28 | 0.181 | 0.164
NCI-H1395 | 0.566 | 0.517 | 0.597 | 0.492 | 0.377
NCI-H1437 | 0.341 | 0.378 | 0.219 | 0.123 | 0.0875
NCI-H1563 | 0.646 | 0.608 | 0.606 | 0.717 | 0.296
NCI-H1650 | 0.527 | 0.461 | 0.328 | 0.151 | 0.166
NCI-H1651 | 0.51 | 0.429 | 0.289 | 0.161 | 0.121
NCI-H1666 | 0.389 | 0.355 | 0.227 | 0.21 | 0.214
NCI-H1703 | 0.246 | 0.22 | 0.182 | 0.163 | 0.155
NCI-H1734 | 0.427 | 0.4 | 0.283 | 0.226 | 0.17

Cell Line | relative viability (first compound 0.005 µM) | relative viability (first compound 0.01581 µM) | relative viability (first compound 0.05 µM) | relative viability (first compound 0.1581 µM) | relative viability (first compound 0.5 µM)
NCI-H1755 | 0.41 | 0.347 | 0.271 | 0.227 | 0.184
NCI-H1792 | 0.304 | 0.223 | 0.0811 | 0.0732 | 0.0644
NCI-H1793 | 0.327 | 0.297 | 0.23 | 0.18 | 0.208
NCI-H1915 | 0.732 | 0.675 | 0.45 | 0.301 | 0.174
NCI-H1944 | 0.327 | 0.35 | 0.351 | 0.21 | 0.205
NCI-H1975 | 0.26 | 0.348 | 0.237 | 0.151 | 0.163
NCI-H1993 | 0.895 | 0.785 | 0.67 | 0.568 | 0.778
NCI-H2009 | 0.787 | 0.787 | 0.387 | 0.185 | 0.139
NCI-H2023 | 0.193 | 0.194 | 0.191 | 0.128 | 0.0717
NCI-H2085 | 0.463 | 0.435 | 0.46 | 0.248 | 0.248
NCI-H2087 | 0.791 | 0.791 | 0.247 | 0.166 | 0.191
NCI-H2126 | 0.452 | 0.502 | 0.367 | 0.28 | 0.226
NCI-H2170 | 0.276 | 0.303 | 0.282 | 0.19 | 0.192
NCI-H2228 | 0.362 | 0.419 | 0.228 | 0.119 | 0.138
NCI-H2347 | 0.534 | 0.431 | 0.41 | 0.376 | 0.429
NCI-H2405 | 0.433 | 0.358 | 0.365 | 0.274 | 0.176
NCI-H3122 | 0.584 | 0.62 | 0.586 | 0.266 | 0.198
PC-3 [JPC-3] | 0.616 | 0.728 | 0.667 | 0.349 | 0.369
PC-14 | 0.632 | 0.672 | 0.447 | 0.127 | 0.0567
RERF-LC-KJ | 0.49 | 0.517 | 0.435 | 0.206 | 0.159
SK-LU-1 | 0.58 | 0.386 | 0.312 | 0.266 | 0.209
SK-MES-1 | 0.326 | 0.333 | 0.212 | 0.147 | 0.123
SW 1573 | 0.466 | 0.387 | 0.2 | 0.158 | 0.112
UMC-11 | 0.316 | 0.379 | 0.129 | 0.137 | 0.133
